We go through 4 molecules from US11273142B2, “Treatment for tumors driven by metabolic dysfunction” (SynDevRx, Inc., priority 2016, dated 2022).

Data set [1] concerns B16F10 melanoma. The data set is described as follows: Metastatic lung lesions in B16F10 melanoma/DIO mice. The note with it: Obese Mice; 2 mg/kg. Format: in vivo, C57BL/6 male mice. As to the method:
(§1) C57BL/6 male mice were ad libitum fed TD.06414 a high fat diet (HFD) composed of 60% Kcal from fat (DIO) for 12-14 weeks, until average body weight of the obese mice was >40 g. Age-matched C57Bl/6 male mice were maintained on a normal rodent diet (10% fat, low-fat diet, LFD) for 12-14 weeks. The study was initiated by injecting 2×10^5 B16F10 melanoma cells into the flank of both lean and obese animals.
(§2) The mice were treated with 5% mannitol/water (vehicle control), Compound 1 or Compound 4 once tumors had reached >100 mm^3. Treatment was via subcutaneous, intra-scapular injection at 5 ml/kg every four days (compound 1) or every 2 days (compound 4) over a 17 day period at the doses and on the schedule shown in Table 2.

For data set [2] the following is noted: SD rats; 5 mg/kg/day (Kim et al.); cited from earlier work.
Data set [3] deals with B16F10 melanoma. The data set is described as follows: B16F10 melanoma tumor growth in obese (DIO) and lean mice. Format: in vivo, C57BL/6 male mice. The note with it: 2 mg/kg SC Q2D.
Excerpt: The study would compare weight changes in both obese and lean animal groups; measure biologic changes in hematology parameters; and compare conjugate molecules of the present disclosure against related small molecules for efficacy.
as §1, §2

The conditions of data set [4]: cited from earlier work.
The nature of data set [5]: Adipose tissue mass in mice bearing B16F10 melanoma. Format: in vivo, C57BL/6 male mice. The note with it: 2 mg/kg. As to the method:
as §1
Treatment was via subcutaneous, intra-scapular injection at 5 ml/kg every four days (compound 1) or every 2 days (compound 4) over a 17 day period at the doses and on the schedule shown in Table 2.

Data set [6] is described as follows: Body weight of B16F10 tumor-bearing obese and lean mice. Format: in vivo, C57BL/6 male mice. Conditions: 2 mg/kg SC Q2D. As to the method: as §1, §2
The conditions of data set [7]: every fourth day schedule; limited by confusion and insomnia; cited from earlier work.
A further data set deals with CYP3A 4 & 5. Put plainly: CYP3A4/5 substrate status. Format: in vitro ADME.
A short description of another data set: NOAEL in rat. The note with it: in vivo, after 3 mg/kg COMPOUND 1.
Another data set can be described thus: NOAEL in dog. Conditions: in vivo, after 0.5 mg/kg COMPOUND 1.
The conditions of data set [8]: in combination with paclitaxel; dosed three times per week; cited from earlier work.

Where two headings read alike, the source gives them in different places.

As to `COC1C(OC(=O)/C=C/c2ccc(OCCN(C)C)cc2)CC[C@]2(CO2)C1[C@@]1(C)O[C@@H]1CC=C(C)C` (stereo partly drawn) [Compound 4], in the data set with B16F10 melanoma [1], the “number of metastatic lung lesions, mean +/- SEM” value was 2.4+/−0.8 lesions/mouse. For the same molecule, the body weight effect entry is “weight loss” in data set [2]; “weight loss” in data set [4] (C57BL/6J mice, 5 mg/kg/day (Kim et al.)); “efficacious in eliciting weight loss” in data set [4] (DIO mice, dosed at 1 mg/kg (Hughes et al.)). Further, the “effect on tumor growth” value in the data set with B16F10 melanoma [3] (lean mice) is listed as “no effect on tumor growth”. The “inhibition of growth of tumors” value in the data set on B16F10 melanoma [3] (obese mice) is given as 28%. Moreover, the entries for the “Tissue Weight, Epididymal Fat” value in data set [5] (Lean Mice) and in data set [5] (Obese Mice) were 0.134 g and 0.424 g, respectively. Besides, the “Tissue Weight, Inguinal Fat” value is listed as 0.208 g in data set [5] (Lean Mice) and 0.416 g in [5] (Obese Mice). The “Tissue Weight, Retroperitoneal Fat” value worked out at 0.029 g in [5] (Lean Mice) and 0.142 g in [5] (Obese Mice). Besides, the “effect on body weight” value in data set [6] (lean mice) was “no effect on body weight”. Besides, the “change in body weight” value in data set [6] (obese mice) was −7.9%. In data set [7], the MTD is 15 mg/m2/day.
Consider `COC1C(OC(=O)N[C@H]2CC[C@H](N)CC2)CC[C@]2(CO2)C1[C@@]1(C)O[C@@H]1CC=C(C)C` (stereo partly drawn) [Compound 5], for which the “CYP3A 4 & 5 substrate” value in the data set on CYP3A 4 & 5 is “substrate”. In the data set “NOAEL in rat”, this molecule displayed an AUC of 23.3 ng·h/mL and a Cmax of 1.5 ng/mL. Moreover, in “NOAEL in dog”, the AUC was 20.7 ng·h/mL and the peak concentration (Cmax) is 0.4 ng/mL.
`CO[C@@H]1[C@H](OC(=O)NC(=O)CCl)CC[C@]2(CO2)[C@H]1[C@@]1(C)O[C@@H]1CC=C(C)C` [TNP-470, chloroacetylcarbamoylfumagillol]: the obesity prevention entry in data set [4] (mice, 15 or 20 mg/kg every other day (Brakenhielm)) is “prevention of obesity”. The body weight effect result in data set [4] (ob/ob mice, daily doses 2.5 mg/kg to 10 mg/kg (Rupnick et al.)) is recorded as “weight loss”. Further, the MTD in data set [8] is 60 mg/m2.
As for `CO[C@@H]1[C@H](OC(=O)/C=C/C=C/C=C/C=C/C(=O)O)CC[C@]2(CO2)[C@H]1[C@@]1(C)O[C@@H]1CC=C(C)C` [fumagillin], in data set [4] (C57BL/6 mice, oral 1 mg/kg daily (Lijnen et al.)), the body weight effect entry is recorded as “weight loss”.

In general, AUC refers to concentration integrated over time. A lower AUC goes with low exposure. By Cmax is commonly meant the highest concentration seen after dosing.
